The text below walks through data of patent publication US20140113904A1, “TREATMENT OF CANCER WITH TOR KINASE INHIBITORS” (SIGNAL PHARMACEUTICALS, LLC, priority 2012, published 2014).

SMILES strings stand for the structures.

For one experiment, the system named is PC3 tumors. The experiment can be described thus: Antitumor activity of Compound 1 in PC3 human prostate cancer xenograft model. In kind it is in vivo, SCID mice. Conditions: for tumor volume reduction compared with vehicle control: Day 31; for tumor volume reduction compared to vehicle control / tumor inhibition compared to vehicle control: day 31. Here is the method: The BID dose groups were dosed with a 10-hour separation between the morning and evening doses. […] At the end of each study, plasma and/or tumor samples were collected.
PC3 cell line was obtained from American Tissue Culture Collection (ATCC) (Gaithersberg, Md.) and grown in growth medium containing Ham's F12K medium with 2 mM L-glutamine adjusted to contain 1.5 g/L sodium bicarbonate and 10% of fetal bovine serum. The cells were detached from tissue culture flasks using trypsin-EDTA. After centrifugation, the cell pellets were suspended in phosphate buffered saline (PBS) and counted using a hemocytometer.
Mice were anesthetized with inhaled isoflurane and then inoculated with PC3 tumor cells subcutaneously on the right hind leg with 0.1 mL of single cell suspensions in Matrigel using a sterile 1 mL syringe fitted with a 26 gauge needle. Following inoculation, the mice were returned to microisolator cages.
Following inoculation, the tumors were allowed to grow to about 100 mm^3 or 500 mm^3 prior to randomization. For efficacy studies, animals with tumors of approximately 100 mm^3 were used. The typical number of days required for tumors to reach 100 mm^3 was 9 to 11 days. The tumor of each animal was measured and animals with tumors ranging between 100 and 200 mm^3 were included in the study. For tolerability and regression studies, animals with tumors of approximately 500 mm^3 (range 300-500 mm^3) were used. The typical number of days required for tumors to reach 500 mm^3 was 20 to 22 days. The animals were then distributed randomly into various cages and the cages were randomly assigned to vehicle, positive control or test article groups. All of the mice were tagged with metal ear tags on the right ear. A typical efficacy study group consisted of 8 to 10 animals. Tolerability study group consisted of 4-6 animals.
The formulations were homogenized using a Teflon™ pestle and mortar (Potter-Elvehjem tissue grinder). Between the doses, the formulated compound was stored under constant stirring using a magnetic stirrer at 4° C. in the dark. The test article and vehicle were administered by oral gavage. […] Sterile syringes and gavage needles were used for compound administration. All the procedures including injections were done in biosafety cabinets sprayed with 70% ethanol prior to use.
Tumor volumes were determined prior to the initiation of treatment and were considered as the starting volumes. Thereafter, tumors were measured twice a week for the duration of the study. The long and short axes of each tumor were measured using a digital caliper in millimeters. The tumor volumes were calculated using the formula: width^2× length/2. The tumor volumes were expressed in cubic millimeters (mm^3).
In general terms: In xenograft studies the graft and the host belong to different species.

In a further experiment the test system is S6RP(S235/S236). The experiment can be described thus: Phospho-S6RP(S235/S236) in PC3 cell lysates, MSD. In kind it is cell-based, human. Conditions: PC3, 1 hour exposure; read-out: p-S6RP(S235/S236) IC50. The source says:
The direct substrate for TORC1 was 4E-BP 1(T46) and indirect downstream substrate was S6RP(S235/S236). The direct substrate for TORC2 was Akt(S473) and indirect downstream substrates measured were GSK3β(S9) and PRAS40(T246). Additionally, the phosphorylation status of Akt(T308), a phosphorylation site for PDK1 was monitored.
MSD® biomarker detection assays provide a rapid and convenient method for measuring the total and phosphorylated levels of protein targets within a single small volume sample. These assays are available in both single-plex and multiplex formats. In a single-plex assay, an antibody for a specific protein target is coated on one electrode (or spot) per well. […] MSD Read Buffer that provides the appropriate chemical environment for ECL is added and the plate is read using an MSD SECTOR™ Imager. […] The instrument measures intensity of the emitted light to afford a quantitative measure of the amount of phosphorylated Akt or S6RP present in the sample. […]
The assay plate was incubated with 150 μL of MSD Blocker A Solution for 1 hour with shaking at room temperature. […] Then 150 μL of 1×MSD Read Buffer T was added to each well. The plate was read on the SECTOR Imager plate reader. The Excel data was transferred to Activity Base and IC50 values were calculated.
All data was analyzed using XLfit from IDBS. […]

For `CO[C@H]1CC[C@H](N2C(=O)CNc3ncc(-c4ccc(C(C)(C)O)nc4)nc32)CC1` [Compound 1, 7-(6-(2-hydroxypropan-2-yl)pyridin-3-yl)-1-((1r,4r)-4-methoxycyclohexyl)-3,4-dihydropyrazino-[2,3-b]pyrazin-2(1H)-one], the “tumor volume reduction compared with vehicle control” value is 64.9% with PC3 tumors (5 mg/kg BID) and 79.9% in the experiment on PC3 tumors (10 mg/kg BID). Moreover, the “tumor volume reduction compared to vehicle control” value in the experiment with PC3 tumors (10 mg/kg QD oral) is reported as 46.1%; with PC3 tumors (25 mg/kg QD oral), 86.7%. Also, the average tumor volume with PC3 tumors (10 mg/kg QD, Day 31 (vehicle 712)) is reported as 383 mm^3; in the experiment with PC3 tumors (25 mg/kg QD group, Day 52 after 3 weeks without dosing), “about 427 mm^3”; in the experiment with PC3 tumors (25 mg/kg QD, Day 31 (158 on Day 11; vehicle 712)), 123 mm^3; in the experiment with PC3 tumors (regression study, 10 mg/kg BID, day 43 (482.2±12.6 on day 20)), 343.6±32.6 mm^3. For the same compound, the “tumor inhibition compared to vehicle control” value in the experiment on PC3 tumors (25 mg/kg Q2D) is 72%; in the experiment on PC3 tumors (25 mg/kg Q3D), 61%; in the experiment on PC3 tumors (50 mg/kg Q3D), 82%; with PC3 tumors (50 mg/kg Q5D), 61%; in the experiment with PC3 tumors (50 mg/kg Q7D), 49%. For the same compound, the tumor response result with PC3 tumors (25 mg/kg QD oral, 3 weeks) is “Tumor regression”; with PC3 tumors (regression study, 1 mg/kg BID, vs vehicle) it was “significantly (p<0.01) slowed tumor growth”; in the experiment on PC3 tumors (regression study, 5 mg/kg BID) it was “stasis of tumor growth”; in the experiment on PC3 tumors (regression study, 10 mg/kg BID), “regression of PC3 tumors”; in the experiment on PC3 tumors (regression study, 25 mg/kg Q2D), “regression of tumors initially during the first 2 weeks of dosing”. The “tumor volume at the end of the second cycle” value in the experiment with PC3 tumors (25 mg/kg QD, second 3-week cycle) is “approximately 729 mm^3”. Further, the “lowest (minimal) efficacious dose” value in the experiment on PC3 tumors (BID, determined by 65% tumor volume inhibition) was found to be 5 mg/kg. This compound also showed a tumor volume in the experiment with PC3 tumors (regression study, 25 mg/kg Q2D, day 43 (475.1±19.6 on day 20)) of 549.4±45.7 mm^3. In the experiment on S6RP(S235/S236), the IC50 was determined as 20 nM.
